These results are taken from ChEMBL document CHEMBL1137509, “Taxodistines A and B, abietane-type diterpenes from Taxodium distichum” (Bioorg Med Chem Lett, 2007).

The target of experiment [1] is T1, Tubulin (Homo sapiens) (UniProt P68371+Q9H4B7+P0DPH7+P68366+Q13509+Q71U36+P04350+Q3ZCM7+P07437+P68363+Q9BQE3+Q6PEY2+Q13885+Q9BVA1+Q9BUF5). Description: Inhibition of tubulin polymerization at 100 uM after 30 mins. The format is protein-complex assay.
The next experiment relates to P388. Description: Cytotoxicity against mouse P388 cells. The experiment is classed as functional, cell-based.
The target of experiment [2] is T1, Tubulin (Homo sapiens). Kind of experiment: Inhibition of tubulin polymerization at 200 uM after 30 mins. The experiment is classed as protein-complex assay.

Converted amounts (≈) assume the structure as drawn. The source made the active and inactive calls. No cut-off for these calls is given here.

In turn, `CC(C)C1=CC2=CC(=O)[C@H]3C(C)(C)CCC[C@]3(C)C2=C(O)C1=O` showed an inhibition against Tubulin (Homo sapiens) [1] of 45%.

In the experiment on P388, `CO[C@@H]1c2cc(C(C)C)c(O)c(O)c2[C@@]2(C)CCCC(C)(C)[C@@H]2[C@H]1O` [TAXODISTINE A] yielded an IC50 of 0.43 µg/mL (≈ 1.23 µM). For the same compound, the result at Tubulin (Homo sapiens) [2] was inactive.

`CO[C@@H]1c2cc(C(C)C)c(O)cc2[C@@]2(C)CCCC(C)(C)[C@@H]2[C@H]1O` [TAXODISTINE B]: on Tubulin (Homo sapiens) [1], the inhibition was 90%. The same compound gave an IC50 in the experiment with P388 of 6.5 µg/mL (≈ 19.5 µM).
